Measured values published in ChEMBL document CHEMBL5316298, “Discovery of Amphiphilic Xanthohumol Derivatives as Membrane-Targeting Antimicrobials against Methicillin-Resistant Staphylococcus aureus” (J Med Chem, 2023).
Values after ≈ are worked out from the molar mass of the structure shown.

Legend:
Staphylococcus aureus [1] = assay: Antibacterial activity against methicillin-resistant Staphylococcus aureus clinical isolate 7 incubated for 16 to 18 hrs by CLSI-based microbroth dilution method; format: functional; details: time 16-18 hrs
Staphylococcus aureus [2] = assay: Antibacterial activity against methicillin-resistant Staphylococcus aureus clinical isolate 6 incubated for 16 to 18 hrs by CLSI-based microbroth dilution method; format: functional; details: time 16-18 hrs
Staphylococcus aureus [3] = assay: Antibacterial activity against methicillin-resistant Staphylococcus aureus clinical isolate 8 incubated for 16 to 18 hrs by CLSI-based microbroth dilution method; format: functional; details: time 16-18 hrs
Staphylococcus aureus [4] = assay: Antibacterial activity against Staphylococcus aureus ATCC 29213 incubated for 16 to 18 hrs by CLSI-based microbroth dilution method; format: functional; details: time 16-18 hrs
[5] = Hemolytic activity in sheep erythrocytes incubated for 1 hr by absorbance based analysis; format: toxicity, cell-based, Ovis aries, Erythrocyte
Staphylococcus aureus [6] = assay: Antibacterial activity against methicillin-resistant Staphylococcus aureus clinical isolate 4 incubated for 16 to 18 hrs by CLSI-based microbroth dilution method; format: functional; details: time 16-18 hrs
Staphylococcus aureus [7] = assay: Antibacterial activity against methicillin-resistant Staphylococcus aureus clinical isolate 10 incubated for 16 to 18 hrs by CLSI-based microbroth dilution method; format: functional; details: time 16-18 hrs
Staphylococcus aureus [8] = assay: Antibacterial activity against methicillin-resistant Staphylococcus aureus clinical isolate 2 incubated for 16 to 18 hrs by CLSI-based microbroth dilution method; format: functional; details: time 16-18 hrs
Staphylococcus aureus [9] = assay: Antibacterial activity against methicillin-resistant Staphylococcus aureus clinical isolate 5 incubated for 16 to 18 hrs by CLSI-based microbroth dilution method; format: functional; details: time 16-18 hrs
Staphylococcus aureus [10] = assay: Antibacterial activity against methicillin-resistant Staphylococcus aureus clinical isolate 1 incubated for 16 to 18 hrs by CLSI-based microbroth dilution method; format: functional; details: time 16-18 hrs
Staphylococcus aureus [11] = assay: Antibacterial activity against methicillin-resistant Staphylococcus aureus clinical isolate 9 incubated for 16 to 18 hrs by CLSI-based microbroth dilution method; format: functional; details: time 16-18 hrs
Staphylococcus aureus [12] = assay: Antibacterial activity against methicillin-resistant Staphylococcus aureus clinical isolate 3 incubated for 16 to 18 hrs by CLSI-based microbroth dilution method; format: functional; details: time 16-18 hrs
Staphylococcus aureus [13] = assay: Induction of drug resistance in Staphylococcus aureus ATCC 29213 assessed as fold increase in MIC at 0.5 times MIC measured for 20 passages relative to control; format: functional

SMILES	MIC (Staphylococcus aureus [1]) [µg/mL]	MIC (Staphylococcus aureus [2]) [µg/mL]	MIC (Staphylococcus aureus [3]) [µg/mL]	MIC (Staphylococcus aureus [4]) [µg/mL]	HC50 at 1 h [5] [µg/mL]	MIC (Staphylococcus aureus [6]) [µg/mL]	MIC (Staphylococcus aureus [7]) [µg/mL]	MIC (Staphylococcus aureus [8]) [µg/mL]	MIC (Staphylococcus aureus [9]) [µg/mL]	MIC (Staphylococcus aureus [10]) [µg/mL]	MIC (Staphylococcus aureus [11]) [µg/mL]	MIC (Staphylococcus aureus [12]) [µg/mL]	fold change (FC) (Staphylococcus aureus [13])
COc1cc2c(c(O)c1C(=O)/C=C/c1ccc(OCCC[N+](C)(C)CC(=O)N3CCOCC3)cc1)C=CC(C)(C)O2.[Br-]	4	8	8	8	> 1280	16	8	8	8	8	8	8	
COc1cc2c(c(O)c1C(=O)/C=C/c1ccc(OCCC[N+](C)(C)CC(=O)N(CC(C)C)CC(C)C)cc1)C=CC(C)(C)O2.[Br-]	1	1	2	2	447	2	4	4	1	2	2	1	
COc1cc2c(c(O)c1C(=O)/C=C/c1ccc(O)cc1)C=CC(C)(C)O2 [XANTHOHUMOL C]	4 (≈ 11.4 µM)	8 (≈ 22.7 µM)	4 (≈ 11.4 µM)	4 (≈ 11.4 µM)	222	4 (≈ 11.4 µM)	4 (≈ 11.4 µM)	4 (≈ 11.4 µM)	4 (≈ 11.4 µM)	4 (≈ 11.4 µM)	8 (≈ 22.7 µM)	4 (≈ 11.4 µM)	
CCCCCNC(=O)C[N+](C)(C)CCCCCOc1ccc(/C=C/C(=O)c2c(OC)cc3c(c2O)C=CC(C)(C)O3)cc1.[Br-]	4	2	2	2	301	2	4	2	2	2	8	2	
CCCCNC(=O)C[N+](C)(C)CCCOc1ccc(/C=C/C(=O)c2c(OC)cc3c(c2O)C=CC(C)(C)O3)cc1.[Br-]	2	2	2	2	58.3	2	4	2	2	2	1	1	
CCCCCCNC(=O)C[N+](C)(C)CCCOc1ccc(/C=C/C(=O)c2c(OC)cc3c(c2O)C=CC(C)(C)O3)cc1.[Br-]	4	4	2	2	97.9	2	1	2	2	2	1	2	
COc1cc2c(c(O)c1C(=O)/C=C/c1ccc(OCCC[N+](C)(C)CC(=O)N(C(C)C)C(C)C)cc1)C=CC(C)(C)O2.[Br-]	2	1	2	4	158	2	4	2	1	2	2	1	
CCn1cc(C(=O)O)c(=O)c2cc(F)c(N3CCNCC3)cc21													128
COc1cc2c(c(O)c1C(=O)/C=C/c1ccc(OCCCCC[N+](C)(C)CC(=O)N3CCOCC3)cc1)C=CC(C)(C)O2.[Br-]	4	2	4	8	> 1280	4	2	4	4	2	4	4	
COc1cc2c(c(O)c1C(=O)/C=C/c1ccc(OCCCC[N+](C)(C)CC(=O)N(CC(C)C)CC(C)C)cc1)C=CC(C)(C)O2.[Br-]	1	1	2	4	333	4	4	2	1	2	2	1	
COc1cc2c(c(O)c1C(=O)/C=C/c1ccc(OCCC[N+](C)(C)CC(=O)N3CCSCC3)cc1)C=CC(C)(C)O2.[Br-]	2	2	2	2	416	4	4	2	2	4	2	2	
